Earlier results in US20020127223A1, “Method for reducing side effects of a drug” (priority 1984, published 2002).

Conditions: administered 3 hours following methotrexate

## Nc1nc(=O)c2c([nH]1)NCC(CNc1ccc(C(=O)N[C@@H](CCC(=O)O)C(=O)O)cc1)N2C=O (mixture of isomers) [folinic acid]
  Attenuation of the toxic effects of methotrexate: attenuate the toxic effects of methotrexate
